In patent US8143254B2, “Methods for modulating ion channels” (Cornell Research Foundation, Inc., priority 2005, dated 2012):

Biological target: T1, Kv4.2 (Homo sapiens, UniProt Q9NZV8)
T1 construct: expressed in transfected cells; host or cells: Xenopus laevis oocytes (cRNA injection, pRAT vector)
T1 sequence (Q9NZV8 1-630): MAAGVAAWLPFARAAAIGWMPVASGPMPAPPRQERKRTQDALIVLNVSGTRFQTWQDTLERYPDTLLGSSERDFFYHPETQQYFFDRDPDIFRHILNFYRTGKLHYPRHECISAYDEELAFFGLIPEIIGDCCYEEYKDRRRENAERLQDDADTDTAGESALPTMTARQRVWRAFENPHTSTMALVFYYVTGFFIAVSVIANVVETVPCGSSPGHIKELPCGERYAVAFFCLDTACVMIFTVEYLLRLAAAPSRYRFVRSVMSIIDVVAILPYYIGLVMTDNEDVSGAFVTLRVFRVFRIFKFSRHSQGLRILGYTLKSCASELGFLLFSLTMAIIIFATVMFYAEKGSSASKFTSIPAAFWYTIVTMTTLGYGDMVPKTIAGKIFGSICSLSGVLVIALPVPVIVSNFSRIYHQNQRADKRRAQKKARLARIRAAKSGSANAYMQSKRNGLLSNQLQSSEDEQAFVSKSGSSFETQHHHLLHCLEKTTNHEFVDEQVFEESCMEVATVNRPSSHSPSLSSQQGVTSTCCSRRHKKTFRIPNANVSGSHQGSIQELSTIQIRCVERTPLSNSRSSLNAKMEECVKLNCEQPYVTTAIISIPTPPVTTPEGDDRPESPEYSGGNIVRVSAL
Assay: TEVC of X. laevis oocytes expressing Kv4.2
Type: cell-based
From the text: Kv2.1 mutants were constructed using the QuickChange Multi Site-Directed Mutagenesis Kit (Stratagene, La Jolla, Calif.). Mutant Kv2.1 genes (in the pGA1 oocyte expression vector for oocyte expression) were sequenced in their entirety to confirm appropriate mutations and check for inadvertent mutations, and then subcloned into a wild-type pGA1 backbone. For oocyte expression, Kv3.4 was in pBF1, Kv4.2 was in pRAT. cRNA transcripts were produced from SacII-linearized (Kv2.1), Mlullinearized (Kv3.4) and Not1-linearized (Kv4.2) DNA templates using the T3 (Kv2.1), SP6 (Kv3.4) and T7 (Kv4.2) mMessage mMachine kits (Ambion, Austin, Tex.). cRNA was quantified by spectrophotometry and its size integrity verified by gel electophoresis. Defolliculated stage V and VI Xenopus laevis oocytes (purchased from Nasco, Grand Island, N.Y.) were injected with 5 ng of cRNA encoding Kv2.1, Kv3.4 or Kv4.2. Chinese Hamster Ovary (CHO) cells were transfected with 0.25 μg Kv2.1 cDNA, 2 μg blank plasmid and 2 μg Green fluorescent Protein in pBOB using Supetfect transfection reagent (Qiagen) 24 hours before whole-cell voltage clamp studies.
Whole-cell two-electrode voltage-clamp (TEVC) recordings were performed on X laevis oocytes expressing cloned Kv2.1, Kv3.4 or Kv4.2 using a Warner OC-725C amplifier and pClamp9 (Axon Instruments, Foster City, Calif.) software. Oocytes were bathed in a small-volume Warner oocyte bath and viewed with a Fisher dissection microscope. Bath solution for whole-cell oocyte recordings was (in mM): 96 NaCl, 4 KCl, 0.7 MgCl2, 1 CaCl2, 10 HEPES (pH 7.4); whole-cell oocyte TEVC pipettes were of 0.2-2 M resistance when filled with 3 M KCl. Experiments were performed 24-48 hours after cRNA injection. For assessment of current-voltage relationships in the absence or presence of dabco derivatives, oocytes were held at −80 mV, stepped for 2 seconds at voltages between −80 mV and +60 mV in 20 mV steps (Kv2.1) or between −80 and +50 mV in 10 mV steps (Kv3.4), then held for 500 ms at −40 mV before returning to the holding potential. […]

c1cc(C[N+]23CCN(CC2)CC3)ccc1C[N+]12CCN(CC1)CC2 [JC638.2α, α,α′-[bis(4-aza-1-azoniabicyclo[2.2.2]octanyl)]p-xylene]
block of Kv4.2 (0.5 mM): 38%

C(CCCC[N+]12CCN(CC1)CC2)CCC[N+]12CCN(CC1)CC2 [TG27, 1,8-[bis(4-aza-1-azoniabicyclo[2.2.2]octanyl)]octane]
block of Kv4.2 (1 mM): 3%

CCCCCCCCCCCC[N+]12CCN(CC1)CC2 [JE188, 1-aza-4-azonia-4-dodecylbicyclo[2.2.2]octane]
block of Kv4.2 (100 μM): 3%
